Usually EC50 stands for the concentration giving half of the maximal effect.

These results are taken from publication PMC4819188, “BitterX: a tool for understanding bitter taste in humans” (Scientific Reports, 2016).

What all share (assay): calcium imaging (Fluo-4) dose-response, HEK293T
Common to all, as to format: cell-based

The target of experiment [1] is T1, TAS2R14 (Homo sapiens, UniProt Q9NYV8).
T1 construct: full ORF from human genomic DNA with N-terminal rhodopsin tag (first 20 residues), pCI; HEK293T with Galpha16/gust44
T1 sequence (Q9NYV8 1-317): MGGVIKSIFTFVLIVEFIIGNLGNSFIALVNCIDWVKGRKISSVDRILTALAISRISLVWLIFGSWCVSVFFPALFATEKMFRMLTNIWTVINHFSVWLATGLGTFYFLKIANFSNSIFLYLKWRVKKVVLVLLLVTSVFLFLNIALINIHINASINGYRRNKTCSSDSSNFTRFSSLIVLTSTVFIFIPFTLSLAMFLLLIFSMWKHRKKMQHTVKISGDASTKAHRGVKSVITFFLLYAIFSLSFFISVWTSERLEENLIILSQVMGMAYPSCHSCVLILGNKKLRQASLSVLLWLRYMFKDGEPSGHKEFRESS
The source says: calcium imaging (Fluo-4) dose-response, HEK293T on TAS2R14

For experiment [2], the target named is T2, TAS2R10 (Homo sapiens, UniProt Q9NYW0).
T2 construct: full ORF from human genomic DNA with N-terminal rhodopsin tag (first 20 residues), pCI; HEK293T with Galpha16/gust44
T2 sequence (Q9NYW0 1-307): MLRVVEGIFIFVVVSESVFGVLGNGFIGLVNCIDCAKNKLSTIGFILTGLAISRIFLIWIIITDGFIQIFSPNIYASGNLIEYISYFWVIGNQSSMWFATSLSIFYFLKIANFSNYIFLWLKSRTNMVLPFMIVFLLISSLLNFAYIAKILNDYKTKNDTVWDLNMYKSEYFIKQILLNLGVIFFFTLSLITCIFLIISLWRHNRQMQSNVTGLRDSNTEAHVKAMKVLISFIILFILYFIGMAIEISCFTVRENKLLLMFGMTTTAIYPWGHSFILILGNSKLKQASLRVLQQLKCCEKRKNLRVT
From the text:
calcium imaging (Fluo-4) dose-response, HEK293T on TAS2R10

Experiment [3] addresses T3, TAS2R46 (Homo sapiens, UniProt P59540).
T3 construct: full ORF from human genomic DNA with N-terminal rhodopsin tag (first 20 residues), pCI; HEK293T with Galpha16/gust44
T3 sequence (P59540 1-309): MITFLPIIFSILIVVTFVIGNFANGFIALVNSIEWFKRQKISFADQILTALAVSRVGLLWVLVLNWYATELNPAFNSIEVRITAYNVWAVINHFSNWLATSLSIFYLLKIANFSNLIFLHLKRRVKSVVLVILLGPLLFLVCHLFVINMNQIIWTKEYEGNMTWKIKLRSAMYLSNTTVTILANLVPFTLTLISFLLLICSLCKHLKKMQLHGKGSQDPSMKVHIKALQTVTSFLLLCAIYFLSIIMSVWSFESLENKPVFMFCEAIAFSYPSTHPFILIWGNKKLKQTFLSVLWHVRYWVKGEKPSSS
The source says:
calcium imaging (Fluo-4) dose-response, HEK293T on TAS2R46

The target of experiment [4] is T4, TAS2R39 (Homo sapiens, UniProt P59534).
T4 construct: full ORF from human genomic DNA with N-terminal rhodopsin tag (first 20 residues), pCI; HEK293T with Galpha16/gust44
T4 sequence (P59534 1-338): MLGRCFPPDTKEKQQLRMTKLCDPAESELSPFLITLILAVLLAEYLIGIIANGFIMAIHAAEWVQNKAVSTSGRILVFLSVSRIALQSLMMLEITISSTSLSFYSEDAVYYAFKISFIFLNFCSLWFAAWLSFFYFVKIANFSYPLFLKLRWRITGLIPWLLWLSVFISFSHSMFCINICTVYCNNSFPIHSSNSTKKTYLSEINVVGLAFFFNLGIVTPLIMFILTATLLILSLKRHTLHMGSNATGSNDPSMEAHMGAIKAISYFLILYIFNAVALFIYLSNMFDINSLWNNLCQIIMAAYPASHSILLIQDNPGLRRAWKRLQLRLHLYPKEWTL
From the text:
calcium imaging (Fluo-4) dose-response, HEK293T on TAS2R39

Experiment [5] addresses T5, TAS2R4 (Homo sapiens, UniProt Q9NYW5).
T5 construct: full ORF from human genomic DNA with N-terminal rhodopsin tag (first 20 residues), pCI; HEK293T with Galpha16/gust44
T5 sequence (Q9NYW5 1-299): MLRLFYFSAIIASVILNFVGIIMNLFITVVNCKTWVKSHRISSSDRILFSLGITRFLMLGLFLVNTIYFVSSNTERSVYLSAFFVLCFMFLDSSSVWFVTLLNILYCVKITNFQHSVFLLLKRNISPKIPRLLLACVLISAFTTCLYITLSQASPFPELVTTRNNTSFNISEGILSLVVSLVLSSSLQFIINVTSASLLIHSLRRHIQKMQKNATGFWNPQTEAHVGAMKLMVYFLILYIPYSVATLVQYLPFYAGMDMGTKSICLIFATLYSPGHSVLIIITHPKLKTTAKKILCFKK
From the text:
calcium imaging (Fluo-4) dose-response, HEK293T on TAS2R4

Experiment [6] deals with T6, TAS2R41 (Homo sapiens, UniProt P59536).
T6 construct: full ORF from human genomic DNA with N-terminal rhodopsin tag (first 20 residues), pCI; HEK293T with Galpha16/gust44
T6 sequence (P59536 1-307): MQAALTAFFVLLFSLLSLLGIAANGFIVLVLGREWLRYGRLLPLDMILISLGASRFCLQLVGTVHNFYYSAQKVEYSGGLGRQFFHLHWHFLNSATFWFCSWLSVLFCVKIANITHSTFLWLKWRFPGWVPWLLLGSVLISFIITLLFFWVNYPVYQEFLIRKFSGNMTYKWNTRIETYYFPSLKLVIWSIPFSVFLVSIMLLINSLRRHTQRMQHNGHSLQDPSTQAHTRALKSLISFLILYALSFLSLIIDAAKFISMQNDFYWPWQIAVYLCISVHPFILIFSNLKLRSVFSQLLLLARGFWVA
The source says: calcium imaging (Fluo-4) dose-response, HEK293T on TAS2R41

Experiment [7] deals with T7, TAS2R16 (Homo sapiens, UniProt Q9NYV7).
T7 construct: full ORF from human genomic DNA with N-terminal rhodopsin tag (first 20 residues), pCI; HEK293T with Galpha16/gust44
T7 sequence (Q9NYV7 1-291): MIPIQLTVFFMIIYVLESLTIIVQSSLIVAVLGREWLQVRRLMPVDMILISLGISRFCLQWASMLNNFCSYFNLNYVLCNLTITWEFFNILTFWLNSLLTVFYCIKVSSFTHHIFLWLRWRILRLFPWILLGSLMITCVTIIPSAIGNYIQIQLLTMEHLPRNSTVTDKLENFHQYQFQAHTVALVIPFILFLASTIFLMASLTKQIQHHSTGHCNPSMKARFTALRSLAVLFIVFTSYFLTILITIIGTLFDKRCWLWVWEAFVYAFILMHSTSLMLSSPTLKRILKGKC
The source says: calcium imaging (Fluo-4) dose-response, HEK293T on TAS2R16

Read-outs that look alike come from different tables or passages of the source.

Consider `COc1ccccc1C=O` [compound 4, 4], for which the 50% effective concentration (EC50) in experiment [1] (read-out: Log EC50 (converted)) is 1230 µM; in experiment [2] (read-out: Log EC50 (converted)) it was 4000 µM.

Turning to `c1ccc(CC2=NCCN2)cc1` [ww3], the concentration giving a half-maximal response (EC50) in experiment [1] is 1280 µM.

For the compound `COc1cc(/C=C\C(=O)O)cc(S(=O)(=O)Nc2ccc(C(=O)O)cc2)c1OC` [compound 5, 5], the 50% effective concentration (EC50) in experiment [1] is 232 µM; in experiment [2], 4000 µM; in experiment [3] it was 138 µM; in experiment [4], 84.1 µM.

For `N=C(N)NC(=N)Nc1ccccc1` [compound 1, 1], the concentration for a half-maximal effect (EC50) is 760 µM in experiment [1], 3710 µM in experiment [5], 1540 µM in experiment [2] and 3320 µM in experiment [6].

Consider `NC(=O)c1ccccc1O` [compound 2, 2], for which the EC50 in experiment [1] (read-out: Log EC50 (converted)) is 356 µM; in experiment [2] (read-out: Log EC50 (converted)), 9750 µM; in experiment [7], 489 µM.
